From ChEMBL document CHEMBL1201862, “PubChem BioAssay data set” (2004)
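Dose response: 5 concentrations. Exposure: 48 h. Format: 96-well plates. Endpoint: linear interpolation; highest concentration if not reached. GI50: concentration for 50% inhibition of growth.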 Calls of active or inactive are those of the source. Rule as the data show it: active = GI50 up to about 1.1 µM and inactive = higher.

Assays:
Assay in all cases: inhibition of tumour cell growth, NCI panel, 48 h
[1] = system: A498
[2] = system: ACHN
[3] = system: CAKI-1
[4] = system: CCRF-CEM
[5] = system: COLO 205
[6] = system: DLD-1
[7] = system: DMS-114
[8] = system: EKVX
[9] = system: HCT-15
[10] = system: HL-60
[11] = system: HOP-18
[12] = system: HOP-62
[13] = system: HOP-92
[14] = system: HT-29
[15] = system: IGROV-1
[16] = system: K562
[17] = system: KM-20L2
[18] = system: LOX IMVI
[19] = system: LXFL 529
[20] = system: M14
[21] = system: M19-MEL
[22] = system: MOLT-4
[23] = system: Malme-3M
[24] = system: NCI-H226
[25] = system: NCI-H23
[26] = system: NCI-H460
[27] = system: NCI-H522
[28] = system: OVCAR-3
[29] = system: OVCAR-8
[30] = system: RPMI-8226
[31] = system: RXF 631
[32] = system: SF-268
[33] = system: SF-295
[34] = system: SF-539
[35] = system: SK-MEL-28
[36] = system: SK-MEL-2
[37] = system: SK-MEL-5
[38] = system: SK-OV-3
[39] = system: SN12C
[40] = system: SNB-19
[41] = system: SNB-75
[42] = system: SNB-78
[43] = system: SW-620
[44] = system: TK-10
[45] = system: U-251
[46] = system: UACC-62
[47] = system: UO-31
[48] = system: XF498
[49] = system: 786-0
[50] = system: A549
[51] = system: BT-549
[52] = system: DMS-273
[53] = system: DU-145
[54] = system: HCC 2998
[55] = system: HCT-116
[56] = system: Hs-578T
[57] = system: KM12
[58] = system: MCF7
[59] = system: MDA-MB-231
[60] = system: MDA-MB-435
[61] = system: MDA-N
[62] = system: NCI/ADR-RES
[63] = system: OVCAR-4
[64] = system: OVCAR-5
[65] = system: PC-3
[66] = system: RXF 393
[67] = system: SR
[68] = system: T47D
[69] = system: UACC-257

For `C#CCOc1c(C(=O)OCC)c(=O)n(C)c2ccccc12`, the GI50 [1] was > 100 µM (inactive), the GI50 [2] was > 100 µM (inactive) and the GI50 [3] was > 100 µM (inactive). For the same compound, the GI50 [4] was > 100 µM (inactive), the GI50 [5] was > 100 µM (inactive) and the GI50 [6] was > 100 µM (inactive). For the same compound, the GI50 [7] was > 100 µM (inactive), the GI50 [8] was > 100 µM (inactive) and the GI50 [9] was greater than 100 µM. For the same compound, the GI50 [10] was > 100 µM (inactive), the GI50 [11] was > 100 µM (inactive) and the GI50 [12] was < 0.01 µM (active). For the same compound, the GI50 [13] was 70 µM (inactive), the GI50 [14] was > 100 µM (inactive) and the GI50 [15] was > 100 µM (inactive). The GI50 [16] was > 100 µM (inactive), the GI50 [17] was > 100 µM (inactive) and the GI50 [18] was > 100 µM (inactive). The GI50 [19] was > 100 µM (inactive), the GI50 [20] was > 100 µM (inactive) and the GI50 [21] was > 100 µM (inactive). For the same compound, the GI50 [22] was > 100 µM (inactive), the GI50 [23] was > 100 µM (inactive) and the GI50 [24] was > 100 µM (inactive). For the same compound, the GI50 [25] was > 100 µM (inactive), the GI50 [26] was > 100 µM (inactive) and the GI50 [27] was > 100 µM (inactive). For the same compound, the GI50 [28] was > 100 µM (inactive), the GI50 [29] was > 100 µM (inactive) and the GI50 [30] was > 100 µM (inactive). The GI50 [31] was > 100 µM (inactive), the GI50 [32] was > 100 µM (inactive) and the GI50 [33] was > 100 µM (inactive). The GI50 [34] was > 100 µM (inactive), the GI50 [35] was > 100 µM (inactive) and the GI50 [36] was > 100 µM (inactive). The GI50 [37] was > 100 µM (inactive), the GI50 [38] was > 100 µM (inactive) and the GI50 [39] was > 100 µM (inactive). The GI50 [40] was > 100 µM (inactive), the GI50 [41] was 54.5 µM (inactive) and the GI50 [42] was > 100 µM (inactive). The GI50 [43] was > 100 µM (inactive), the GI50 [44] was > 100 µM (inactive) and the GI50 [45] was > 100 µM (inactive). The GI50 [46] was > 100 µM (inactive), the GI50 [47] was > 100 µM (inactive) and the GI50 [48] was 72.6 µM (inactive).
In the case of `N#C/C(=C\c1cc(O)c(O)c(O)c1)C(N)=O`, the GI50 [49] is reported as 54.6 µM (inactive), the GI50 [1] is reported as > 100 µM (inactive) and the GI50 [50] is reported as > 100 µM (inactive). The GI50 [2] was > 93.8 µM (inactive), the GI50 [51] was 97.5 µM (inactive) and the GI50 [3] was > 100 µM (inactive). The GI50 [4] was 38.3 µM (inactive), the GI50 [5] was > 100 µM (inactive) and the GI50 [6] was > 100 µM (inactive). The GI50 [7] was > 100 µM (inactive), the GI50 [52] was > 100 µM (inactive) and the GI50 [53] was 97.7 µM (inactive). For the same compound, the GI50 [8] was > 91 µM (inactive), the GI50 [54] was > 100 µM (inactive) and the GI50 [55] was > 70.1 µM (inactive). For the same compound, the GI50 [9] was greater than 74.5 µM, the GI50 [10] was 37.8 µM (inactive) and the GI50 [12] was > 87.3 µM (inactive). For the same compound, the GI50 [13] was 98.2 µM (inactive), the GI50 [14] was > 92.7 µM (inactive) and the GI50 [56] was > 100 µM (inactive). For the same compound, the GI50 [15] was > 100 µM (inactive), the GI50 [16] was 62.2 µM (inactive) and the GI50 [17] was 74.1 µM (inactive). The GI50 [57] was > 90.4 µM (inactive), the GI50 [18] was 41.3 µM (inactive) and the GI50 [19] was > 100 µM (inactive). For the same compound, the GI50 [20] was > 90.2 µM (inactive), the GI50 [21] was 45.3 µM (inactive) and the GI50 [58] was > 39.4 µM (inactive). For the same compound, the GI50 [59] was > 66.5 µM (inactive), the GI50 [60] was > 55.7 µM (inactive) and the GI50 [61] was > 62.4 µM (inactive). For the same compound, the GI50 [22] was 52.5 µM (inactive), the GI50 [23] was > 100 µM (inactive) and the GI50 [24] was > 100 µM (inactive). For the same compound, the GI50 [25] was > 100 µM (inactive), the GI50 [26] was > 79.3 µM (inactive) and the GI50 [27] was > 66.4 µM (inactive). The GI50 [62] was > 93.1 µM (inactive), the GI50 [28] was > 72.8 µM (inactive) and the GI50 [63] was 74.8 µM (inactive). The GI50 [64] was > 100 µM (inactive), the GI50 [29] was > 100 µM (inactive) and the GI50 [65] was > 22.2 µM (inactive). The GI50 [30] was > 100 µM (inactive), the GI50 [66] was > 100 µM (inactive) and the GI50 [31] was > 100 µM (inactive). For the same compound, the GI50 [32] was 67.3 µM (inactive), the GI50 [33] was > 100 µM (inactive) and the GI50 [34] was > 100 µM (inactive). For the same compound, the GI50 [35] was > 100 µM (inactive), the GI50 [36] was > 100 µM (inactive) and the GI50 [37] was > 69.5 µM (inactive). The GI50 [38] was > 100 µM (inactive), the GI50 [39] was > 84.3 µM (inactive) and the GI50 [40] was > 100 µM (inactive). For the same compound, the GI50 [41] was 63.7 µM (inactive), the GI50 [42] was > 100 µM (inactive) and the GI50 [67] was > 47.5 µM (inactive). The GI50 [43] was > 84.5 µM (inactive), the GI50 [68] was > 100 µM (inactive) and the GI50 [44] was > 100 µM (inactive). The GI50 [45] was > 87.5 µM (inactive), the GI50 [69] was > 100 µM (inactive) and the GI50 [46] was 72.6 µM (inactive). The GI50 [47] was > 74.1 µM (inactive) and the GI50 [48] was > 100 µM (inactive).
With `COc1ccc(-c2cc(=O)c3cc(C)c(C)c(C(=O)O)c3o2)cc1` the GI50 [49] was > 100 µM (inactive), the GI50 [1] was > 100 µM (inactive) and the GI50 [50] was > 100 µM (inactive). For the same compound, the GI50 [2] was 17.9 µM (inactive), the GI50 [3] was > 100 µM (inactive) and the GI50 [4] was > 100 µM (inactive). For the same compound, the GI50 [5] was > 100 µM (inactive), the GI50 [6] was > 100 µM (inactive) and the GI50 [7] was 15.3 µM (inactive). The GI50 [52] was > 100 µM (inactive), the GI50 [8] was > 100 µM (inactive) and the GI50 [54] was > 100 µM (inactive). For the same compound, the GI50 [55] was > 100 µM (inactive), the GI50 [9] was greater than 100 µM and the GI50 [10] was > 100 µM (inactive). The GI50 [12] was > 100 µM (inactive), the GI50 [13] was < 0.01 µM (active) and the GI50 [14] was > 100 µM (inactive). For the same compound, the GI50 [15] was > 100 µM (inactive), the GI50 [16] was > 100 µM (inactive) and the GI50 [17] was > 100 µM (inactive). For the same compound, the GI50 [57] was > 100 µM (inactive), the GI50 [19] was > 100 µM (inactive) and the GI50 [21] was > 100 µM (inactive). The GI50 [22] was > 100 µM (inactive), the GI50 [25] was > 100 µM (inactive) and the GI50 [26] was > 100 µM (inactive). For the same compound, the GI50 [28] was > 100 µM (inactive), the GI50 [63] was > 100 µM (inactive) and the GI50 [29] was > 100 µM (inactive). The GI50 [30] was > 100 µM (inactive), the GI50 [66] was > 100 µM (inactive) and the GI50 [31] was > 100 µM (inactive). The GI50 [33] was > 100 µM (inactive), the GI50 [34] was > 100 µM (inactive) and the GI50 [35] was > 100 µM (inactive). For the same compound, the GI50 [36] was > 100 µM (inactive), the GI50 [38] was > 100 µM (inactive) and the GI50 [39] was > 100 µM (inactive). For the same compound, the GI50 [40] was > 100 µM (inactive), the GI50 [41] was > 100 µM (inactive) and the GI50 [42] was > 100 µM (inactive). For the same compound, the GI50 [67] was > 100 µM (inactive), the GI50 [43] was > 100 µM (inactive) and the GI50 [45] was > 100 µM (inactive). The GI50 [69] was > 100 µM (inactive), the GI50 [46] was 13.6 µM (inactive) and the GI50 [47] was > 100 µM (inactive). For the same compound, the GI50 [48] was > 100 µM (inactive).
